Laboratory results published in patent US12595248B2, “PRMT5 inhibitors” (Merck Sharp & Dohme LLC, priority 2019, dated 2026).
Where two headings read alike, the source gives them in different places.

Tests used:
[1] = target: T1, PRMT5-MEP50 enzyme complex (Homo sapiens, UniProt O14744); assay: PRMT5-MEP50 Enzyme Methylation Assay (Version A); format: biochemical
T1 construct: Full-length (FL)-PRMT5-MEP50 enzyme complex (recombinant proteins from baculovirus-transfected Sf21 cells: FL-PRMT5; MW=73837 kDa and FL-MEP50; MW=38614); made in house; host or cells: baculovirus-transfected Sf21 cells

PRMT5 = target: T2, PRMT5 (Homo sapiens, UniProt O14744); assay: PRMT5 Cell Target Engagement (TE) Assay; format: cell-based; details: MCF-7 cells, treated for 3 days, symmetric dimethylation of arginine (SDMA) by high content imaging
T2 construct: seeded with 4000 MCF-7 cells in 30 μl media; endogenous in cells; host or cells: MCF-7 cells
Summary of the method: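 MCF-7 cells treated 3 days at 37 °C with a ten-point 1:3 titration from 10000 nM. Fixed cells immunostained with anti-SDMA and Alexa488 secondary; nuclear fluorescence quantified by high-content imaging versus DMSO wells, with IC50 from a 4-parameter fit.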

[2] = first of two EC50s: 7 parameters biphasic model, read-out: Enzyme Methylation Assay Version A (EC50_1)
[3] = second of two EC50s: 7 parameters biphasic model, read-out: Enzyme Methylation Assay Version A (EC50_2)
[4] = only one EC50 shown: 4 parameters single site sigmoidal model, 60 min pre-incubation with SAM, read-out: Enzyme Methylation Assay Version A (EC50)

T1 sequence (O14744 whole entry): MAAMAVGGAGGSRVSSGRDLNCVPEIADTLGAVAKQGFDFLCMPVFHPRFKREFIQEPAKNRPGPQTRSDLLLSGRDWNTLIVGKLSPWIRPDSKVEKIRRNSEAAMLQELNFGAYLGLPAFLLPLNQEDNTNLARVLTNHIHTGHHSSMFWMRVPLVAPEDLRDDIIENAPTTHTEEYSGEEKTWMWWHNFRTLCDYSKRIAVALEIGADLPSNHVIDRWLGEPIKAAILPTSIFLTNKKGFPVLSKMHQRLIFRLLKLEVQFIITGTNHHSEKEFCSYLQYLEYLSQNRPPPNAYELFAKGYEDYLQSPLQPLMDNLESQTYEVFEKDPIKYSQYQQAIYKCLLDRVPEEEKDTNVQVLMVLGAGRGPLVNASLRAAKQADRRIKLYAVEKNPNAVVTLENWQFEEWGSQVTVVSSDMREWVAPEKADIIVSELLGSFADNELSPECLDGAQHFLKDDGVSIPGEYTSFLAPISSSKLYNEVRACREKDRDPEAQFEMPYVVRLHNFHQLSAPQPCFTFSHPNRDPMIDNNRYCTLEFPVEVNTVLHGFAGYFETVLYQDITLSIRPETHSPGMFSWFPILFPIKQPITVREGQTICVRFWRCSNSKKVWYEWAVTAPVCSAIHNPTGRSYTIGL
T1 sequence (Q9BQA1 whole entry partner): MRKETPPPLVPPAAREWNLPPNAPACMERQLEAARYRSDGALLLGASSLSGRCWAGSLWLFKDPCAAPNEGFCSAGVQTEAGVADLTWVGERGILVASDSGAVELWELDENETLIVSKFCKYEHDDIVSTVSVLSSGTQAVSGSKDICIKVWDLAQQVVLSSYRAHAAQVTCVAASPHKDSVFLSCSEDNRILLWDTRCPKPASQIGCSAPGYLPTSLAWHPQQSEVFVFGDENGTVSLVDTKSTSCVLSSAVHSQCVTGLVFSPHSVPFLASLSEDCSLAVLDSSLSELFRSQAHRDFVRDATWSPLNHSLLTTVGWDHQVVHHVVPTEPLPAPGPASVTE
T2 sequence (O14744 whole entry): as the sequence (O14744 whole entry) above
T2 sequence (Q9BQA1 whole entry partner): as the sequence (Q9BQA1 whole entry partner) above

Row | Compound | EC50 [1, 2] [nM] | EC50 [1, 3] [nM] | EC50 (PRMT5) [nM] | EC50 [1, 4] [nM]
1 | Cc1cc(Br)c2nc(C(=O)N3CC[C@H](N4CCc5ccccc5C4)[C@@H](O)C3)cn2c1 [Example 134, (8-bromo-6-methylimidazo[1,2-a]pyridin-2-yl)[(3S,4S)-4-(3,4-dihydroisoquinolin-2(1H)-yl)-3-hydroxypiperidin-1-yl]methanone] | 1.8 | 202 | 43 | 
2 | Cc1cc(Br)cn2cc(C(=O)N3CC[C@H](N4CCc5ccccc5C4)[C@@H](O)C3)nc12 [Example 135, (6-bromo-8-methylimidazo[1,2-a]pyridin-2-yl)[(3S,4S)-4-(3,4-dihydroisoquinolin-2(1H)-yl)-3-hydroxypiperidin-1-yl]methanone] |  |  | 12 | 1.7
3 | Cc1cc(Cl)c2nc(C(=O)N3CC[C@H](N4CCc5ccccc5C4)[C@@H](O)C3)cn2c1 [Example 136, (8-chloro-6-methylimidazo[1,2-a]pyridin-2-yl)[(3S,4S)-4-(3,4-dihydroisoquinolin-2(1H)-yl)-3-hydroxypiperidin-1-yl]methanone] | 1.2 | 79 | 50 | 
4 | O=C(c1cn2cc(C(F)(F)F)cc(Cl)c2n1)N1CC[C@H](N2CCc3ccccc3C2)[C@@H](O)C1 [Example 137, [8-chloro-6-(trifluoromethyl)imidazo[1,2-a]pyridin-2-yl][(3S,4S)-4-(3,4-dihydroisoquinolin-2(1H)-yl)-3-hydroxypiperidin-1-yl]methanone] |  |  | 9.2 | 1.1
5 | O=C(c1cn2cc(Cl)cc(Br)c2n1)N1CC[C@H](N2CCc3ccccc3C2)[C@@H](O)C1 [Example 138, (8-bromo-6-chloroimidazo[1,2-a]pyridin-2-yl)[(3S,4S)-4-(3,4-dihydroisoquinolin-2(1H)-yl)-3-hydroxypiperidin-1-yl]methanone] | 1.1 | 39 | 17 | 
6 | O=C(c1cn2cc(Br)cc(I)c2n1)N1CC[C@H](N2CCc3ccccc3C2)[C@@H](O)C1 [Example 139, (6-bromo-8-iodoimidazo[1,2-a]pyridin-2-yl)[(3S,4S)-4-(3,4-dihydroisoquinolin-2(1H)-yl)-3-hydroxypiperidin-1-yl]methanone] |  |  | 7.6 | 1.3

Second part, the compound after the results:

Row | EC50 [1, 2] [nM] | EC50 [1, 3] [nM] | EC50 (PRMT5) [nM] | EC50 [1, 4] [nM] | Compound
7 | 0.8 | 65 | 28 |  | O=C(c1cn2cc(Cl)cc(Cl)c2n1)N1CC[C@H](N2CCc3ccccc3C2)[C@@H](O)C1 [Example 140, (6,8-dichloroimidazo[1,2-a]pyridin-2-yl)[(3S,4S)-4-(3,4-dihydroisoquinolin-2(1H)-yl)-3-hydroxypiperidin-1-yl]methanone]
8 |  |  | 21 | 1.1 | O=C(c1cn2cc(Br)cc(F)c2n1)N1CC[C@H](N2CCc3ccccc3C2)[C@@H](O)C1 [Example 141, (6-bromo-8-fluoroimidazo[1,2-a]pyridin-2-yl)[(3S,4S)-4-(3,4-dihydroisoquinolin-2(1H)-yl)-3-hydroxypiperidin-1-yl]methanone]
9 |  |  | 8.6 | 1.1 | O=C(c1cn2cc(Br)cc(Br)c2n1)N1CC[C@H](N2CCc3ccccc3C2)[C@@H](O)C1 [Example 142, (6,8-dibromoimidazo[1,2-a]pyridin-2-yl)[(3S,4S)-4-(3,4-dihydroisoquinolin-2(1H)-yl)-3-hydroxypiperidin-1-yl]methanone]
10 | 2.8 | 1820 | 806 |  | O=C(c1cc2ncc(Br)cn2n1)N1CC[C@H](N2CCc3ccccc3C2)[C@@H](O)C1 [Example 143, (6-bromopyrazolo[1,5-a]pyrimidin-2-yl)[(3S,4S)-4-(3,4-dihydroisoquinolin-2(1H)-yl)-3-hydroxypiperidin-1-yl]methanone]
